In data set [1] the test system is THP-1. The data set is described as follows: Antiinflammatory activity in human THP-1 cells assessed as reduction in LPS-induced TNF alpha secretion at 10 uM incubated for 12 hrs measured by ELISA. In kind it is functional, cell-based.
For data set [2], the system named is THP-1. The data set is described as follows: Antiinflammatory activity in human THP-1 cells assessed as reduction in LPS-induced IL6 secretion at 10 uM incubated for 12 hrs measured by ELISA. In kind it is functional, cell-based.
Data set [3] deals with THP-1. The data set is described as follows: Cytotoxicity against human THP-1 cells assessed as reduction in cell viability at 1 to 10 uM. The format is cell-based. As to conditions: thp-1, 10 µM.
The nature of data set [4]: Metabolic stability in human liver microsomes assessed as half life in presence of NADPH by LC-MS analysis. The format is ADME, Microsome.
Data set [5] is described as follows: Metabolic stability in mouse liver microsomes assessed as half life in presence of NADPH by LC-MS analysis. In kind it is ADME, Microsome.
Data set [6] is described as follows: Tmax in BALB/c mouse at 10 mg/kg, po by LC/MS-MS analysis. In kind it is ADME, organism-based. As to conditions: in vivo.
A short description of data set [7]: Tmax in BALB/c mouse at 2 mg/kg, iv by LC/MS-MS analysis. The conditions noted are these: in vivo. In kind it is ADME, organism-based.
Data set [8] in a line: Cmax in BALB/c mouse at 10 mg/kg, po by LC/MS-MS analysis. The format is ADME, organism-based. More on the design: route oral, dose 10 mg/kg. As to conditions: in vivo.
Data set [9] can be described thus: Cmax in BALB/c mouse at 2 mg/kg, iv by LC/MS-MS analysis. In kind it is ADME, organism-based. Also on record: route intravenous, dose 2 mg/kg. As to conditions: in vivo.
The nature of data set [10]: AUC (0 to t) in BALB/c mouse at 10 mg/kg, po by LC/MS-MS analysis. The format is ADME, organism-based. More on the design: dose 10 mg/kg. As to conditions: in vivo.
The nature of data set [11]: AUC (0 to t) in BALB/c mouse at 2 mg/kg, iv by LC/MS-MS analysis. The format is ADME, organism-based. Also on record: dose 2 mg/kg. The conditions noted are these: in vivo.
A short description of data set [12]: AUC (0 to infinity) in BALB/c mouse at 10 mg/kg, po by LC/MS-MS analysis. More on the design: route oral, time infinity, dose 10 mg/kg. In kind it is ADME, organism-based. The conditions noted are these: in vivo.
A short description of data set [13]: AUC (0 to infinity) in BALB/c mouse at 2 mg/kg, iv by LC/MS-MS analysis. More on the design: route intravenous, time infinity, dose 2 mg/kg. The format is ADME, organism-based. As to conditions: in vivo.
Data set [14] can be described thus: Half life in BALB/c mouse at 10 mg/kg, po by LC/MS-MS analysis. In kind it is ADME, organism-based. The conditions noted are these: in vivo.
A short description of data set [15]: Half life in BALB/c mouse at 2 mg/kg, iv by LC/MS-MS analysis. In kind it is ADME, organism-based. The conditions noted are these: in vivo.
Data set [16] is described as follows: Bioavailability in BALB/c mouse at 10 mg/kg, po by LC/MS-MS analysis. The format is ADME, organism-based. The conditions noted are these: in vivo.
Data set [17] concerns Mus musculus. The experiment in a line: Hepatoprotective activity in LPS/D-GalN-induced fulminant hepatic failure BALB/c mouse model assessed as inhibition of serum AST level at 200 mg/kg, IG once daily for 3 days. In kind it is functional, organism-based. The conditions noted are these: time 3.0 day.
For data set [18], the system named is Mus musculus. The data set is described as follows: Hepatoprotective activity in LPS/D-GalN-induced fulminant hepatic failure BALB/c mouse model assessed as inhibition of serum ALT level at 200 mg/kg, IG once daily for 3 days. In kind it is functional, organism-based. As to conditions: time 3.0 day.
Data set [19] concerns Mus musculus. The experiment in a line: Antiinflammatory activity against LPS/D-GalN-induced fulminant hepatic failure BALB/c mouse model assessed as inhibition of IL-6 mRNA expression in liver at 200 mg/kg, IG once daily for 3 days by RT-PCR analysis. As to conditions: time 3.0 day. The format is functional, organism-based.
The subject of data set [20] is Mus musculus. The experiment in a line: Antiinflammatory activity against LPS/D-GalN-induced fulminant hepatic failure BALB/c mouse model assessed as inhibition of TNFalpha mRNA expression in liver at 200 mg/kg, IG once daily for 3 days by RT-PCR analysis. In kind it is functional, organism-based. The conditions noted are these: time 3.0 day.
The test system of data set [21] is Mus musculus. The experiment in a line: Hepatoprotective activity in LPS/D-GalN-induced fulminant hepatic failure BALB/c mouse model assessed as changes in liver histology at 200 mg/kg, IG once daily for 3 days by H/E staining based analysis. The conditions noted are these: time 3.0 day. In kind it is functional, organism-based.
The species named for data set [22] is Homo sapiens. The experiment in a line: Effect on recombinant AMPKalpha1beta1gamma1 (unknown origin) phosphorylation.
The species named for data set [23] is Homo sapiens. The data set is described as follows: Effect on recombinant AMPK alpha2beta2gamma1 (unknown origin) phosphorylation.
A short description of data set [24]: Metabolic stability in human liver microsomes assessed as intrinsic clearance in presence of NADPH by LC-MS analysis. In kind it is ADME, Microsome. As to conditions: read-out: CLH.
The nature of data set [25]: Metabolic stability in mouse liver microsomes assessed as intrinsic clearance in presence of NADPH by LC-MS analysis. The format is ADME, Microsome. The conditions noted are these: read-out: CLH.
Data set [26] deals with T1, AMP-activated protein kinase, AMPK (Homo sapiens) (UniProt P54646+O43741+P54619+Q9UGJ0+Q9Y478+Q13131+Q9UGI9). The experiment in a line: Activation of AMPK in human Huh-7 cells assessed as increase in AMPK phosphorylation at Thr172 residue at 10 uM measured after 12 hrs by Western blot analysis. The format is cell-based. The conditions noted are these: filed as activator.

Data set [27] deals with T1, AMP-activated protein kinase, AMPK (Homo sapiens). The experiment in a line: Activation of AMPK in human Huh-7 cells assessed as increase in AMPK phosphorylation at Thr172 residue at 10 uM measured by Western blot analysis. In kind it is cell-based. The conditions noted are these: filed as activator, time hrs <=12, TDE = time-dependent effect.
Data set [28] has the same target. The experiment in a line: Activation of AMPK in human HepG2 cells assessed as increase in AMPK phosphorylation at Thr172 residue at 10 uM measured by Western blot analysis. The format is cell-based. The conditions noted are these: filed as activator, time hrs <=12, TDE = time-dependent effect.
Data set [29] has the same target. The data set is described as follows: Activation of AMPK in human Huh-7 cells assessed as increase in AMPK phosphorylation at Thr172 measured upto 12 hrs by Western blot analysis. In kind it is cell-based. The conditions noted are these: filed as activator, dose microM <=20, time hrs <=12.
Data set [30] shares this target. The data set is described as follows: Activation of AMPK in human HepG2 cells assessed as increase in AMPK phosphorylation measured upto 12 hrs by Western blot analysis. In kind it is cell-based. As to conditions: filed as activator, dose microM <=20, time hrs <=12.
Data set [31] has the same target. The experiment in a line: Activation of AMPK in human Huh-7 cells assessed as increase in acetyl-CoA carboxylase phosphorylation at Ser79 residue at 10 uM measured by Western blot analysis. The format is cell-based. As to conditions: filed as activator, time hrs <=12, TDE = time-dependent effect.
Data set [32] shares this target. The data set is described as follows: Activation of AMPK in human HepG2 cells assessed as increase in acetyl-CoA carboxylase phosphorylation at Ser79 residue at 10 uM measured by Western blot analysis. The conditions noted are these: filed as activator, time hrs <=12, TDE = time-dependent effect. In kind it is cell-based.
Data set [33] shares this target. The experiment in a line: Activation of AMPK in human Huh-7 cells assessed as increase in acetyl-CoA carboxylase phosphorylation at Ser79 measured upto 12 hrs by Western blot analysis. In kind it is cell-based. As to conditions: filed as activator, dose microM <=20, time hrs <=12.
Data set [34] has the same target. The data set is described as follows: Activation of AMPK in human HepG2 cells assessed as increase in acetyl-CoA carboxylase phosphorylation at Ser79 measured upto 12 hrs by Western blot analysis. In kind it is cell-based. As to conditions: filed as activator, dose microM <=20, time hrs <=12.

Structures are written as SMILES. Calls of active or inactive are those of the source. The calls are words filed in the database; no cut-off is given here.

For `CC1(C)CC[C@]2(C(=O)O)CC[C@]3(C)C(=C2C1)CC[C@@H]1[C@@]2(C)CC[C@H](O[C@@H]4OC[C@H](O)[C@H](O)[C@H]4O)C(C)(C)[C@@H]2CC[C@]13C`, the result in the data set on THP-1 [1], in the data set with THP-1 [2], in the data set on Mus musculus [17], with Mus musculus [18], with Mus musculus [19] and in the data set with Mus musculus [20] was Active. In the data set on Mus musculus [21], the result was Active. Besides, the Activity result in the data set with THP-1 [3] was “Non-Toxic”. Moreover, the half-life in data set [4] is above 120 min; in data set [5], above 120 min; in data set [14] it was 21 min; in data set [15], 21 min. In addition, the Tmax in data set [6] turned out to be 25.2 min; in data set [7], 4.8 min. The Cmax in [8] was found to be 1.84 µg/mL; in [9], 4.41 µg/mL. The AUC(0-t) in data set [10] turned out to be 1.67 µg·h/mL; in data set [11], 1.35 µg·h/mL. The AUC(0-inf) was determined as 1.69 µg·h/mL in data set [12] and 1.36 µg·h/mL in data set [13]. This compound had a bioavailability in data set [16] of 24.7%. The outcome in the data set filed under Homo sapiens [22] and in the data set filed under Homo sapiens [23] was inactive.

Take `O=C(c1ccc(F)cc1)C1CCN(CCn2c(=O)[nH]c3ccccc3c2=O)CC1` [KETANSERIN]: the half-life in data set [4] was determined as 42.4 min; in data set [5], 19.3 min. Further, the CLint scaled stood at 2.46 L/h/kg in data set [24] and 17 L/h/kg in data set [25].

For `CC1(C)CC[C@]2(C(=O)O)CC[C@]3(C)C(=C2C1)CC[C@@H]1[C@@]2(C)CC[C@H](O)C(C)(C)[C@@H]2CC[C@]13C`, the result in data set [26] was Active. In addition, the Activity entry is “Tde” in data set [27]; “Tde” in data set [28]; “Dose-dependent effect” in [29]; “Dose-dependent effect” in data set [30]; “Tde” in data set [31]; “Tde” in data set [32]. For the same compound, the results for the Activity entry (in [33]; in [34]; with THP-1 [3]) were “Dose-dependent effect”, “Dose-dependent effect” and “Non-Toxic”, respectively.

For `CC1(C)CC[C@]2(C(=O)O[C@@H]3OC[C@@H](O)[C@H](O)[C@H]3O)CC[C@]3(C)C(=C2C1)CC[C@@H]1[C@@]2(C)CC[C@H](O[C@@H]4OC[C@H](O)[C@H](O)[C@H]4O)C(C)(C)[C@@H]2CC[C@]13C`, the outcome in the data set on THP-1 [1] and in the data set with THP-1 [2] was Active. In the data set on THP-1 [3], the Activity entry is reported as “Non-Toxic”. Further, the half-life is 45 min in data set [4], above 120 min in data set [5], 68.4 min in data set [14] and 104 min in data set [15]. Moreover, the CLint scaled in data set [24] was 2.31 L/h/kg. Also, the Tmax in [6] is 160 min; in [7] it was 4.8 min. Also, the values for the Cmax in data set [8] and in data set [9] were 0.728 µg/mL and 3.5 µg/mL, respectively. The AUC(0-t) in [10] is 3 µg·h/mL; in [11] it was 3.22 µg·h/mL. Besides, the AUC(0-inf) was found to be 3.08 µg·h/mL in data set [12] and 3.3 µg·h/mL in data set [13]. The bioavailability in data set [16] came out at 18.6%.

In the case of `CC1(C)CC[C@]2(C(=O)O)CC[C@]3(C)C(=C2C1)CC[C@@H]1[C@@]2(C)CC[C@H](O[C@@H]4OC[C@H](O)[C@H](O)[C@H]4O[C@@H]4OC[C@@H](O)[C@H](O)[C@H]4O)C(C)(C)[C@@H]2CC[C@]13C`, the half-life was above 120 min in [4], above 120 min in data set [5], 75.6 min in [14] and 135 min in data set [15]. Further, the CLint scaled in data set [24] turned out to be 0.195 L/h/kg; in data set [25], 0.14 L/h/kg. The time to peak (Tmax) in data set [6] stood at 45 min; in data set [7], 4.8 min. Besides, the Cmax in data set [8] turned out to be 0.0542 µg/mL; in data set [9], 8.82 µg/mL. Further, the AUC(0-t) in [10] came to 0.145 µg·h/mL; in [11], 2.57 µg·h/mL. The values for the AUC(0-inf) in [12] and in data set [13] were 0.151 µg·h/mL and 2.59 µg·h/mL, respectively. Besides, in data set [16], the bioavailability is 1.13%.

Values taken from ChEMBL document CHEMBL4732083, “Synthesis and anti-inflammatory activity of saponin derivatives of δ-oleanolic acid” (Eur J Med Chem, 2021).
